In patent US12428423B2, “1H-imidazo[4,5-h]quinazoline compound as protein kinase inhibitor” (SHENGKE PHARMACEUTICALS (JIANGSU) LTD., priority 2017, dated 2025):
Structures can show the parent of a compound that is named as a salt.

Experiments:
CDK4/cyclin D1 = CDK4/cyclin D1 (Homo sapiens (Human), UniProt P11802); assay: Biochemical kinase inhibitory assay, CDK4/cyclin D1; settings: recombinant CDK4/cyclin D1; in the presence of 10 μM ATP
Procedure: Potency determination in the biochemical kinase inhibitory assay. Kinase activity assay and IC50 determination. […] The kinase reaction was initiated by the addition of 1 μg (1.5 μM) of recombinant retinoblastoma protein, 5 μM ATP and 10μ Ci γ-32P-ATP. The reaction was incubated at 30° C. for 20 minutes, and the reaction was stopped by the addition of 2× Laemmli sample buffer, heated at 95° C. for three minutes, and dissolved in 12% acrylamide SDS-PAGE for autoradiography. The corresponding phosphorylated substrate protein bands were quantified using a densitometer (Bio-Rad). […] The reaction took place in the presence of 10 μM ATP.

CDK6/cyclin D1 = CDK6/cyclin D1 (Homo sapiens (Human), UniProt Q00534); assay: Biochemical kinase inhibitory assay, CDK6/cyclin D1; settings: in the presence of 10 μM ATP
Procedure: Potency determination in the biochemical kinase inhibitory assay. Kinase activity assay and IC50 determination. […] The kinase reaction was initiated by the addition of 1 μg (1.5 μM) of recombinant retinoblastoma protein, 5 μM ATP and 10μ Ci γ-32P-ATP. The reaction was incubated at 30° C. for 20 minutes, and the reaction was stopped by the addition of 2× Laemmli sample buffer, heated at 95° C. for three minutes, and dissolved in 12% acrylamide SDS-PAGE for autoradiography. The corresponding phosphorylated substrate protein bands were quantified using a densitometer (Bio-Rad). […] The compounds disclosed herein were tested in a similar manner for their inhibitory activities against CDK6/cyclin D1, CDK2/cyclin A, CDK5/cyclin P25, CDK9/cyclin Ti, CDK7/cyclin H and CDK19/cyclin C. […] The reaction took place in the presence of 10 μM ATP.

Chain of CDK4/cyclin D1 (P11802 whole entry): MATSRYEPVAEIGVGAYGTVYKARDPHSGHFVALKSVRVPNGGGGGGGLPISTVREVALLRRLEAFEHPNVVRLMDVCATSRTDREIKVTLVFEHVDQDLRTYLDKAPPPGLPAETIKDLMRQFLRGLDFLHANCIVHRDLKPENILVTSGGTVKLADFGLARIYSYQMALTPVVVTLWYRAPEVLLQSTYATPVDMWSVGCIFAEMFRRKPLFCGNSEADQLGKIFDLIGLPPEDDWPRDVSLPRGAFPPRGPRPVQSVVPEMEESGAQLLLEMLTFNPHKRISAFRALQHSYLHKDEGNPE
Chain of CDK4/cyclin D1 (P24385 whole entry partner): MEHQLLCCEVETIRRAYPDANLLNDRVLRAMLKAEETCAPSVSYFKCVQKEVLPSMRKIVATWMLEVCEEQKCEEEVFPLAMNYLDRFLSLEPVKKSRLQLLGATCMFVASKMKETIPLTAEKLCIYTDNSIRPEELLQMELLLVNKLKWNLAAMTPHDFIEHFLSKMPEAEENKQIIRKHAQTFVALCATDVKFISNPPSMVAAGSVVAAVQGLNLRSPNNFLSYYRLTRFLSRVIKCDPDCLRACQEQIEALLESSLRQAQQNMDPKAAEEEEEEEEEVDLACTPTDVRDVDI
Chain of CDK6/cyclin D1 (Q00534 whole entry): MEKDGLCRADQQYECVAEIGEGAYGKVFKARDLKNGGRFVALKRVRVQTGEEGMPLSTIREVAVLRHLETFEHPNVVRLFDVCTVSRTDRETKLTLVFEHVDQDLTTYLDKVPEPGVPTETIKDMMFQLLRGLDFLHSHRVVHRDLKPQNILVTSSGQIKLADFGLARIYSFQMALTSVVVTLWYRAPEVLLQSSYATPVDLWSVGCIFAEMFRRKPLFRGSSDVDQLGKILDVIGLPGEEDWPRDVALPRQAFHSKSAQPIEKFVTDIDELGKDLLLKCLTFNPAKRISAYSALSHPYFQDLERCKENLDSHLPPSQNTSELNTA
Chain of CDK6/cyclin D1 (P24385 whole entry partner): as the sequence (P24385 whole entry partner) above

| Structure (SMILES) | IC50 (CDK4/cyclin D1) [nM] | IC50 (CDK6/cyclin D1) [nM] |
| --- | --- | --- |
| Cc1cc(Nc2ncc3ccc4ncn(C(C)C)c4c3n2)ncc1N1CCOCC1 [Compound I-24] | 2 to 10 | 2 to 10 |
| CC(C)n1cnc2ccc3cnc(Nc4ccc(N5CC6(CNC6)C5)cn4)nc3c21 [Compound I-30] | 10 to 50 | 10 to 50 |
| CC(C)n1cnc2ccc3cnc(Nc4ccc(N5CCNCC5)cn4)nc3c21 [Compound I-1, 1-Isopropyl-N-(5-(piperazin-1-yl)pyridin-2-yl)-1H-imidazo[4,5-h]quinazolin-8-amine hydrochloride] | < 2 | < 2 |
| CC(C)n1cnc2ccc3cnc(Nc4ccc(N5CCOCC5)cn4)nc3c21 [Compound I-23] | < 2 | < 2 |
| c1cc(Nc2ncc3ccc4ncn(C5CCC5)c4c3n2)ncc1N1CCOCC1 [Compound I-55] | 10 to 50 | 10 to 50 |
| Cc1cc2ncn(C(C)C)c2c2nc(Nc3ccc(N4CCOCC4)cn3)ncc12 [Compound I-65] | 50 to 100 | 50 to 100 |
| CC(C)n1cnc2ccc3cnc(Nc4ccc(N5CCCCC5)cn4)nc3c21 [Compound I-16] | 10 to 50 | 10 to 50 |
| CC(C)n1cnc2ccc3cnc(Nc4ccc(N5CCNC(C)(C)C5)cn4)nc3c21 [Compound I-11] | 2 to 10 | 2 to 10 |
| c1cc(Nc2ncc3ccc4ncn(C5CCCC5)c4c3n2)ncc1N1CCNCC1 [Compound I-57] | < 2 | < 2 |
| Cc1nc(Nc2ncc3ccc4ncn(C(C)C)c4c3n2)ccc1N1CCOCC1 [Compound I-25] | 2 to 10 | 2 to 10 |
| Cc1cc(Nc2ncc3cc(Br)c4ncn(C(C)C)c4c3n2)ncc1N1CCNCC1 [Compound I-68] | 2 to 10 | 2 to 10 |
| c1cc(Nc2ncc3ccc4ncn(C5CC5)c4c3n2)ncc1N1CCNCC1 [Compound I-47] | 2 to 10 | 2 to 10 |
| Cc1cc2cnc(Nc3ccc(N4CCNCC4)cn3)nc2c2c1ncn2C(C)C [Compound I-72] | 2 to 10 | 2 to 10 |
| Cc1cc(Nc2ncc3c(C)cc4ncn(C(C)C)c4c3n2)ncc1N1CCNCC1 [Compound I-63] | 50 to 100 | 50 to 100 |
| CC(C)n1cnc2ccc3cnc(Nc4ccc(N5CCN(C)CC5)cn4)nc3c21 [Compound I-2, 1-isopropyl-N-(5-(4-methylpiperazin-1-yl)pyridin-2-yl)-1H-imidazo[4,5-h]quinazolin-8-amine] | 2 to 10 | 2 to 10 |
| CCn1cnc2ccc3cnc(Nc4ccc(N5CCN(C)CC5)cn4)nc3c21 [Compound I-43] | 10 to 50 | 10 to 50 |
| CC(C)n1cnc2ccc3cnc(Nc4ccc(N5CCC6(CCC(=O)N6)CC5)cn4)nc3c21 [Compound I-33] | 10 to 50 | 10 to 50 |
| Cc1nc(Nc2ncc3c(C)cc4ncn(C(C)C)c4c3n2)ccc1N1CCNCC1 [Compound I-64] | 50 to 100 | 50 to 100 |
| Cc1cc(Nc2ncc3ccc4ncn(C(C)C)c4c3n2)ncc1N1CCNCC1 [Compound I-8] | < 2 | < 2 |
| COc1cc(OC2CCN(C)CC2)ccc1Nc1ncc2ccc3ncn(C(C)C)c3c2n1 [Compound I-37] | 50 to 100 | 50 to 100 |
| CC(C)n1cnc2ccc3cnc(Nc4ccc(N5CCC(O)CC5)cn4)nc3c21 [Compound I-17] | 10 to 50 | 10 to 50 |
| Cc1cc(Nc2ncc3ccc4ncn(C5CC5)c4c3n2)ncc1N1CCOCC1 [Compound I-50] | 10 to 50 | 10 to 50 |
| CCN1CCN(c2ccc(Nc3ncc4ccc5ncn(C(C)C)c5c4n3)nc2)CC1 [Compound I-5] | < 2 | < 2 |
| CC(C)n1cnc2ccc3cnc(Nc4ccc(N5CCC(N(C)C)CC5)cn4)nc3c21 [Compound I-19] | 10 to 50 | 10 to 50 |
| Cc1nc(Nc2ncc3cc(Br)c4ncn(C(C)C)c4c3n2)ccc1N1CCNCC1 [Compound I-69] | 2 to 10 | 2 to 10 |
| CC(C)n1cnc2ccc3cnc(Nc4ccc(N5CCC(N)C5)cn4)nc3c21 (stereo not drawn) [Compound I-22] | 10 to 50 | 10 to 50 |
| Cc1nc(Nc2ncc3cc(C)c4ncn(C(C)C)c4c3n2)ccc1N1CCNCC1 [Compound I-74] | 2 to 10 | 2 to 10 |

Other lines, results leading:

| IC50 (CDK4/cyclin D1) [nM] | IC50 (CDK6/cyclin D1) [nM] | Structure (SMILES) |
| --- | --- | --- |
| 2 to 10 | 2 to 10 | CC(C)n1cnc2c(Br)cc3cnc(Nc4ccc(N5CCNCC5)cn4)nc3c21 [Compound I-67] |
| 10 to 50 | 10 to 50 | CC(C)n1cnc2ccc3cnc(Nc4ccc(N5CCC6(CNC6)C5)cn4)nc3c21 [Compound I-29] |
| 10 to 50 | 10 to 50 | c1cc(Nc2ncc3ccc4ncn(C5CCC5)c4c3n2)ncc1N1CCNCC1 [Compound I-52] |
| 2 to 10 | 2 to 10 | Cc1nc(Nc2ncc3ccc4ncn(C5CCCC5)c4c3n2)ccc1N1CCNCC1 [Compound I-59] |
| 2 to 10 | 2 to 10 | Cc1nc(Nc2ncc3ccc4ncn(C(C)C)c4c3n2)ccc1N1CCN(C)CC1 [Compound I-4] |
| 2 to 10 | 2 to 10 | c1cc(Nc2ncc3ccc4ncn(C5CCCC5)c4c3n2)ncc1N1CCOCC1 [Compound I-60] |
| 2 to 10 | 2 to 10 | Cc1cc2cnc(Nc3ccc(N4CCOCC4)cn3)nc2c2c1ncn2C(C)C [Compound I-75] |
| 2 to 10 | 2 to 10 | CC(C)n1cnc2ccc3cnc(Nc4ccc(N5CCN[C@@H](C)C5)cn4)nc3c21 [Compound I-10] |
| 10 to 50 | 10 to 50 | Cc1cc(Nc2ncc3ccc4ncn(C5CCC5)c4c3n2)ncc1N1CCOCC1 [Compound I-56] |
| 10 to 50 | 10 to 50 | Cc1cc(Nc2ncc3cc(C)c4ncn(C(C)C)c4c3n2)ncc1N1CCOCC1 [Compound I-76] |
| 10 to 50 | 10 to 50 | CC(C)n1cnc2ccc3cnc(Nc4ccc(N5CCC(N)CC5)cn4)nc3c21 [Compound I-21] |
| 2 to 10 | 2 to 10 | CC(C)n1cnc2ccc3cnc(Nc4ccc(N5C[C@@H](C)O[C@@H](C)C5)cn4)nc3c21 [Compound I-27] |
| 10 to 50 | 10 to 50 | CC(C)n1cnc2c(Br)cc3cnc(Nc4ccc(N5CCC6(CC5)CNC6)cn4)nc3c21 [Compound I-71] |
| 2 to 10 | 2 to 10 | Cc1cc(Nc2ncc3ccc4ncn(C5CCCC5)c4c3n2)ncc1N1CCOCC1 [Compound I-61] |
| 10 to 50 | 10 to 50 | CC(C)n1cnc2ccc3cnc(Nc4ccc(N5CCC(N(C)C)CC5)c(F)n4)nc3c21 [Compound I-20] |
| 50 to 100 | 50 to 100 | CC(C)N1CCN(c2ccc(Nc3ncc4ccc5ncn(C(C)C)c5c4n3)nn2)CC1 [Compound I-41] |
| 10 to 50 | 10 to 50 | CCn1cnc2ccc3cnc(Nc4ccc(N5CCOCC5)cn4)nc3c21 [Compound I-45] |

| IC50 (CDK4/cyclin D1) [nM] | IC50 (CDK6/cyclin D1) [nM] | Structure (SMILES) |
| --- | --- | --- |
| 10 to 50 | 10 to 50 | Cc1cc(Nc2ncc3ccc4ncn(C5CC5)c4c3n2)ncc1N1CCNCC1 [Compound I-48] |
| 10 to 50 | 10 to 50 | CC(C)n1cnc2ccc3cnc(Nc4ccc(N5CCNCC5)cc4F)nc3c21 [Compound I-35] |
| 2 to 10 | 2 to 10 | CC(C)n1cnc2ccc3cnc(Nc4ccc(N5C[C@@H](C)N[C@@H](C)C5)cn4)nc3c21 [Compound I-12] |
| 10 to 50 | 10 to 50 | CC(C)n1cnc2ccc3cnc(Nc4ccc(N5CCC(CCCO)CC5)cn4)nc3c21 [Compound I-18] |
| 10 to 50 | 10 to 50 | CC(C)n1cnc2ccc3cnc(Nc4ccc(N5CCC(CCCO)CC5)cc4)nc3c21 [Compound I-38] |
| 50 to 100 | 50 to 100 | COc1cc(OCCN(C)C)ccc1Nc1ncc2ccc3ncn(C(C)C)c3c2n1 [Compound I-36] |
| < 2 | < 2 | Cc1nc(Nc2ncc3ccc4ncn(C(C)C)c4c3n2)ccc1N1CCNCC1 [Compound I-9] |
| 50 to 100 | 50 to 100 | COc1cc(C(=O)NC2CCN(C)CC2)ccc1Nc1ncc2ccc3ncn(C(C)C)c3c2n1 [Compound I-40] |
| 2 to 10 | 2 to 10 | CCN1CCN(c2ccc(Nc3ncc4ccc5ncn(C(C)C)c5c4n3)nc2C)CC1 [Compound I-7] |
| 50 to 100 | 50 to 100 | COc1ccc2cc(Nc3ncc4ccc5ncn(C(C)C)c5c4n3)ccc2n1 [Compound I-39] |
| 10 to 50 | 10 to 50 | CCn1cnc2ccc3cnc(Nc4ccc(N5CCOC(C)C5)cn4)nc3c21 (stereo not drawn) [Compound I-46] |
| 10 to 50 | 10 to 50 | Cc1nc(Nc2ncc3ccc4ncn(C5CCC5)c4c3n2)ccc1N1CCNCC1 [Compound I-54] |
| 10 to 50 | 10 to 50 | CC(C)n1cnc2ccc3cnc(Nc4ccc(N5CCC6(CCNCC6)C5)cn4)nc3c21 [Compound I-28] |
| 2 to 10 | 2 to 10 | Cc1cc(Nc2ncc3ccc4ncn(C5CCCC5)c4c3n2)ncc1N1CCNCC1 [Compound I-58] |
| 10 to 50 | 10 to 50 | c1cc(Nc2ncc3ccc4ncn(C5CC5)c4c3n2)ncc1N1CCOCC1 [Compound I-49] |
| 2 to 10 | 2 to 10 | CC1CN(c2ccc(Nc3ncc4ccc5ncn(C(C)C)c5c4n3)nc2)CCO1 (stereo not drawn) [Compound I-26] |
